One data set deals with ICR Swiss mice. The data set is described as follows: Stimulation of periosteal bone formation in a mouse calvarial injection model. The data set is classed as in vivo. Particulars: present-tense example, no data or figure. How it is done: Stimulation of Periosteal Bone Formation in a Mouse Calvarial Injection Model. The anabolic (bone formation) of compounds of the presently-disclosed subject matter are evaluated in the mouse calvarial injection model. Briefly, 4-week-old ICR Swiss mice are injected subcutaneously over the surface of the calvariae with compounds of the presently-disclosed subject matter at concentrations of 0, 1, 3, and 10 mg/kg/day for 5 days (twice a day). Microtubule inhibitor TN-16 (5 mg/kg/day for 2 days, twice a day) are used as a positive control. Mice are sacrificed two weeks after the injections are completed. Dissected calvarial samples are fixed in 10% phosphate-buffered formalin for 2 days, decalcified in 10% EDTA for 2 weeks and then embedded in paraffin. Histological sections are cut and stained with H&E and orange G. New woven bone formation (new bone area) is quantified by histomorphometry using the OsteoMeasure system (OsteoMetrics Inc., Atlanta, Ga.).

In data set [1] the test system is OVX rats. The data set is described as follows: Volume fraction, ex vivo micro-computed tomography of tibia. The data set is classed as in vivo, Sprague-Dawley female rats. Particulars: present-tense example, no data or figure. How it is done: (§1) Animals. Six month old, bilaterally ovariectomized (OVX) or sham operated Sprague-Dawley female rats (Harlan Laboratories, Indianapolis, Ind.) were maintained at the University of Louisville Research Resources Center at 22° C. with a 12-h light/dark cycle and ad libitum access to tap water and rodent chow (Purina Laboratory Rodent Diet 5001). All animal procedures were approved by the Institutional Animal Care and Use Committee, which is certified by the American Association for Accreditation of Laboratory Animal Care.
(§2) In vivo experiments were conducted in order to investigate the efficacy of compounds of the presently-disclosed subject matter. In all of the experiments, OVX and sham operated rats were randomly divided into groups of 5-7 animals. In all of the studies experimental groups included: i) Sham-operated control (euthanized six weeks post surgery as a pretreatment control), ii) OVX control (euthanized six weeks post surgery as a pretreatment control), iii) Sham control receiving vehicle, iv) OVX control receiving vehicle, v) OVX receiving 17-ethinyl estradiol (equimolar concentration with a selected test compound), vi) OVX receiving alendronate (1.6 mg/kg), and vii) OVX receiving parathyroid hormone 1-34 (PTH) ([…]). 17-ethinyl estradiol (17 EE) is a free estrogenic agent known to be orally active, and can serve as an example of an anti-catabolic agent. Alendronate (Alen) is a bisphosphonate that is currently used to treat osteoporosis (e.g., Fosamax®, Merck & Co., Inc,), and can serve as an example of an anti-catabolic agent. Parathyroid hormone 1-34 (PTH) is an agent that can serve as an example of an anabolic agent. All compounds and vehicle (1% DMSO in corn oil) were administered three times per week orally by gavage except for PTH which was administered via a subcutaneous injection in a volume of 0.5 ml/kg body mass thrice per week. Compound administration was initiated 6 weeks following surgery and lasted for 6 weeks (18 doses total).
(§3) Compounds of the presently-disclosed subject matter were orally administered to OVX rats at various doses. As indicated above all BTE's were administered three times per week for 6 weeks.
(§4) Following 6 weeks of treatment, blood was obtained from each animal via cardiac puncture following an overnight fast and animals were subsequently euthanized via carbon dioxide asphyxiation. Blood was centrifuged immediately and the obtained serum samples were aliquoted and stored at −70° C. prior to analysis. Uteri were removed and fresh weights were obtained. Uterine masses were normalized to body mass at the end of the experiment. The left and right femora and left and right tibiae were subsequently collected from each animal, cleaned of soft tissue, and stored in saline at 4° C. prior to analysis.
Volume Fraction—Ex vivo micro-computed tomography (μCT). Volume fraction is a representative value for the amount of bone that occupies a given volume or space. High resolution image data were collected using a customized micro-CT system (ACTIS 150/225 system, BIR Inc., Lincolnshire, Ill.). The metaphysis of each right tibia was scanned over a three millimeter range and three-dimensional images were reconstructed. Data were subsequently processed to reveal the volume fraction (BV/TV) occupied by trabecular (cancellous) bone tissue, cortical bone tissue, and whole bone tissue. The resulting data provides information regarding the density of whole bone, cortical bone, and trabecular bone.

Data set [2] relates to OVX rats. In words: Bone mechanical competence indentation test. In kind it is in vivo, Sprague-Dawley female rats. As to conditions: present-tense example, no data or figure. How it is done:
as §1, §2, §3, §4
Bone Mechanical Competence Indentation Test. After sacrifice, the left tibiae were trimmed to expose the cancellous bone of the proximal tibial metaphysis and an indentation test was performed by advancing a flat-tipped cylindrical post (1.5 mm diameter) axially into the cut surface to measure the compressive strength of the cancellous bone structure.

For data set [3], the system named is OVX rats. The data set is described as follows: Quantitative determination of lipid metabolism (total cholesterol, HDL, LDL) in rat serum. The data set is classed as in vivo, Sprague-Dawley female rats. Here is the method: as §1, §2, §4
Quantitative Determination of Lipid Metabolism (Total Cholesterol HDL, and LDL) in Rat Serum. Total cholesterol, high-density lipoprotein (HDL), and low-density lipoprotein (LDL) were quantitatively determined in the serum of rats in order to evaluate the extraosseous effects of estrogen treatment on lipid metabolism. Commercially available kits from Wako Diagnostics (Richmond, Va.) were used for the evaluations as recommended by the manufacturer.

Data set [4] concerns OVX rats. The data set is described as follows: Regional femoral density via Archimedes' Principle. In kind it is in vivo, Sprague-Dawley female rats. Particulars: three times per week for 6 weeks. Here is the method: as §1, §2, §3
Following 6 weeks of treatment, blood was obtained from each animal via cardiac puncture following an overnight fast and animals were subsequently euthanized via carbon dioxide asphyxiation. […]
Regional Femoral Density via Archimedes' Principle. […] Briefly, each femur was measured with a Cen-Tech Digital Caliper and a cut was made from each end at 20% of the length of the femur plus half the width of the blade. Subsequently, the bone marrow was washed out of the femoral diaphysis and the Archimedes density for each of the three femoral regions was determined as described above.

Data set [5] deals with OVX rats. The data set is described as follows: Femoral density via Archimedes' Principle (whole bone). As to conditions: OVX rats, three times per week for 6 weeks. The data set is classed as in vivo, Sprague-Dawley female rats. How it is done:
as §1, §2, §3, §4
Femoral Density via Archimedes' Principle. Right femora were submerged in distilled water and fully hydrated under a vacuum for 1 hr. Subsequently, the mass of each hydrated femur was obtained in air and when submerged in water. Densities were determined using Archimedes' Principle according to the following formula: density=[mass of hydrated femur/(mass of hydrated femur−mass of hydrated femur submerged in water)]×density of distilled water at a given temperature (See Keenan, et al. Comparison of bone density measurement techniques: DXA and Archimedes' principle. J Bone Miner Res 1997; 12:1903-7.). The obtained density measurements were associated with whole bone.

On to `COc1ccc(NC(=O)CCC(=O)OC2CCC3C4CCC5=CC(=O)CCC5(C)C4CCC23C)c(O)c1C(N)=O` (stereo not drawn) [Formula 33], for which, in the data set with ICR Swiss mice, the “new bone area (calvarial injection model)” value is given as “increase new bone area”. Also, in the data set with OVX rats [1], the “volume fraction (BV/TV) of trabecular, cortical and whole bone tissue” value is on record as “increase bone density”. For the same molecule, the “bone strength (indentation test)” value with OVX rats [2] was “increase bone strength”. In addition, the “lipid metabolism (total cholesterol, HDL, LDL in serum)” value in the data set on OVX rats [3] (present-tense example, no data or figure) is recorded as “limited or no effect”. Also, in the data set on OVX rats [4] (oral 3000 μg/kg), the “regional bone density (proximal and distal left femur)” value is listed as “higher than that of the OVX animals”. Further, in the data set with OVX rats [5] (oral 3000 μg/kg), the “whole bone density (right femora)” value was “higher than that of the OVX animals”.

As for `COc1ccc(NC(=O)COCCOCCNC(=O)CCOC2CCC3C4CCc5cc(O)ccc5C4CCC23C)c(O)c1C(N)=O` (stereo not drawn) [Formula 123], in the data set with ICR Swiss mice, the “new bone area (calvarial injection model)” value is “affect new bone area”. Further, the “volume fraction (BV/TV) of trabecular, cortical and whole bone tissue” value with OVX rats [1] is given as “increase bone density”. The “bone strength (indentation test)” value with OVX rats [2] is listed as “increase bone strength”. Besides, the “lipid metabolism (total cholesterol, HDL, LDL in serum)” value with OVX rats [3] (rat, in vivo) was “limited or no effect”. Further, the “regional bone density (left femur)” value with OVX rats [4] (oral 10, 100, or 1000 μg/kg) was “increased regional bone densities, as compared to the OVX animals”. In addition, the “whole bone density (right femora)” value with OVX rats [5] (oral 10, 100, or 1000 μg/kg) is “in the same ranges as those animals receiving 17-ethinyl estradiol (17 EE), Alendronate (Alen), or Parathyroid hormone 1-34 (PTH)”.
